Data published in patent US9403810B2, “Carboxamide derivatives” (Novartis AG, priority 2014, dated 2016).

Target: Smurf-1 (Homo sapiens (Human), UniProt Q9HCE7)
Assay: HECT E3 ligase autoubiquitinylation TR-FRET assay (Smurf-1)
Assay type: biochemical
Conditions: 8-point dose-response curve, 3 nM to 10 uM; 45 min incubation
Description: To determine the HECT E3 ligase selectivity of the compounds, a panel of biochemical HECT E3 ligase autoubiquitinylation assays was employed (Smurf-1, Smurf-2, WWP1, WWP2, ITCH, Nedd4, Nedd4L and E6AP). The conjugation of ubiquitin to a protein substrate is a multistep process. In an initial ATP-requiring step, a thioester bond is formed between the carboxyl terminus of ubiquitin and an internal cystein residue of the ubiquitin-activating enzyme (E1). Activated ubiquitin is then transferred to a specific cystein residue of an ubiquitin-conjugating enzyme (E2). E2s donate ubiquitin to a HECT E3 ligase (E3) from which it is transferred to the substrate protein. HECT E3 ligases can auto-ubiquitinylate. This event is detected in the TR-FRET (Time-Resolved Fluorescence Resonance Energy Transfer) assay used in this panel. The reaction mix contains E1, E2, tagged-E3, biotin-conjugated ubiquitin, the compound and ATP in a suitable buffer and is incubated for 45 minutes to allow auto-ubiquitinylation of the E3 ligase. To measure the extent of ubiquitinylated E3 ligase by TR-FRET, the donor fluorophore Europium cryptate (Eu3+ cryptate), conjugated to streptavidin which subsequently binds to biotinylated ubiquitin, and the modified allophycocyanin XL665 (HTRF® primary acceptor fluorophore) coupled to a tag-specific antibody (HA, His or GST), which recognizes the respective E3 ligase fusion proteins, are added after the reaction is complete. When these two fluorophores are brought together by a bimolecular interaction (in this case ubiquitinylation of the E3 ligase), a portion of the energy captured by the Cryptate during excitation is released through fluorescence emission at 620 nm, while the remaining energy is transferred to XL665. This energy is then released by XL665 as specific fluorescence at 665 nm. Light at 665 nm is emitted only through FRET with Europium.
Test and reference compounds are prepared at 180× [final] in 90% DMSO, and diluted 1:3 in 90% DMSO.
For the biochemical assay panel, 50 nl of the test compounds, reference compounds and buffer/DMSO control are transferred to the respective wells of a 384-well white GREINER “SMALL VOLUME” PS plate. The assay panel is run at room temperature on a Biomek FX liquid handling workstation. To the assay plates containing 50 nl compound or control solutions in 90% DMSO, 4.5 ul of E3 ligase solution were added per well, followed by 4.5 ul of the pre-incubated E1/E2/Ub mix or the pre-diluted ubiquitin (LOW control). Plates are shaken vigorously after each addition. In this assay the compound concentrations range from 3 nM to 10 uM in an 8-point dose-response curve.
After an incubation time of 45 min in the dark, the plates are transferred into the Pherastar fluorescence reader to measure the TR-FRET signal.

Smurf-1, sequence (Q9HCE7 whole entry): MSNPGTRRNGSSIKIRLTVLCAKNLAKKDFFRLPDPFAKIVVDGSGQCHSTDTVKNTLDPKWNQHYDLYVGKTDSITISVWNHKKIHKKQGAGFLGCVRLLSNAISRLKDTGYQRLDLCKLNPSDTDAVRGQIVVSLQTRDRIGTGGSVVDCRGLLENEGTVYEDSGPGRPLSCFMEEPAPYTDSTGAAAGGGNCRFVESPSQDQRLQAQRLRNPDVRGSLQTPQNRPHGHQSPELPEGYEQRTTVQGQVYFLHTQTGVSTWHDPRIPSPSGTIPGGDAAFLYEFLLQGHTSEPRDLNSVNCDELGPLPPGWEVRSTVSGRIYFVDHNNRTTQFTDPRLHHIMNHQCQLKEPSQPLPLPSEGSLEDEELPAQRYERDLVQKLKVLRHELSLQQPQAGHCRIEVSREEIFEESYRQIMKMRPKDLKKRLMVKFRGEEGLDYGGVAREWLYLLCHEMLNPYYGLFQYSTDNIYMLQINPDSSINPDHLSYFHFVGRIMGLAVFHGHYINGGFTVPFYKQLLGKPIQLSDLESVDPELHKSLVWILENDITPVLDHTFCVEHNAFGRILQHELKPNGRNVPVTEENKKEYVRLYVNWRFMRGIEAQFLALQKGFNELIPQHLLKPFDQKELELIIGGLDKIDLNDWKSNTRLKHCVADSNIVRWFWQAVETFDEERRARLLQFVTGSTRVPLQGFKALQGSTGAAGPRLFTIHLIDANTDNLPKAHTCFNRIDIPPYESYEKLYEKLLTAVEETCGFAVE

Point of comparison: `CO[C@H]1C[C@@H](c2onc(C(=O)Nc3c(C)n(C)n(C4CCCCC4)c3=O)c2C)O[C@@H](C(C)(C)C)C1` (racemic) [Example 13, 5-((2S,4R,6R)-6-(tert-butyl)-4-methoxytetrahydro-2H-pyran-2-yl)-N-(2-cyclohexyl-1,5-dimethyl-3-oxo-2,3-dihydro-1H-pyrazol-4-yl)-4-methylisoxazole-3-carboxamide and 5-((2R,4S,6S)-6-(tert-butyl)-4-methoxytetrahydro-2H-pyran-2-yl)-N-(2-cyclohexyl-1,5-dimethyl-3-oxo-2,3-dihydro-1H-pyrazol-4-yl)-4-methylisoxazole-3-carboxamide], IC50 640 nM. Against it:
- Cc1c(C(=O)Nc2c(C)n(C)n(C3CCCCC3)c2=O)noc1[C@@H]1CC=C[C@H](C)O1 (racemic) [Example 19, N-(2-cyclohexyl-1,5-dimethyl-3-oxo-2,3-dihydro-1H-pyrazol-4-yl)-4-methyl-5-((2S,6S)-6-methyl-3,6-dihydro-2H-pyran-2-yl)isoxazole-3-carboxamide and N-(2-cyclohexyl-1,5-dimethyl-3-oxo-2,3-dihydro-1H-pyrazol-4-yl)-4-methyl-5-((2R,6R)-6-methyl-3,6-dihydro-2H-pyran-2-yl)isoxazole-3-carboxamide] — 2.8-fold higher, 1800 nM
- Cc1c(C(=O)Nc2c(C)n(C)n(C3CCCCC3)c2=O)noc1C1=CCC2(CCCO2)CC1 (centres unmarked) [Example 2.1, N-(2-Cyclohexyl-1,5-dimethyl-3-oxo-2,3-dihydro-1H-pyrazol-4-yl)-4-methyl-5-(1-oxaspiro[4.5]dec-7-en-8-yl)isoxazole-3-carboxamide] — 10-fold lower, 64 nM
- CO[C@H]1C[C@@H](c2onc(C(=O)Nc3c(C)n(C)n(C4CCCCC4)c3=O)c2C)O[C@@H](C(C)(C)C)C1 (single isomer, unassigned) [Example 13a, 5-((2S,4R,6R)-6-(tert-butyl)-4-methoxytetrahydro-2H-pyran-2-yl)-N-(2-cyclohexyl-1,5-dimethyl-3-oxo-2,3-dihydro-1H-pyrazol-4-yl)-4-methylisoxazole-3-carboxamide or 5-((2R,4S,6S)-6-(tert-butyl)-4-methoxytetrahydro-2H-pyran-2-yl)-N-(2-cyclohexyl-1,5-dimethyl-3-oxo-2,3-dihydro-1H-pyrazol-4-yl)-4-methylisoxazole-3-carboxamide] — 2.2-fold lower, 290 nM
- Cc1c(C(=O)Nc2c(C)n(C)n(C3CCCCC3)c2=O)noc1C1=CCC(C(F)(F)F)CC1 (centres unmarked) [Example 1.7, N-(2-Cyclohexyl-1,5-dimethyl-3-oxo-2,3-dihydro-1H-pyrazol-4-yl)-4-methyl-5-(4-(trifluoromethyl)cyclohex-1-en-1-yl)isoxazole-3-carboxamide] — 19-fold lower, 33 nM
- Cc1c(C(=O)Nc2c(C)n(C)n(C3CCCCC3)c2=O)noc1C1=CCCCCC1 [Example 1.6, 5-(Cyclohept-1-en-1-yl)-N-(2-cyclohexyl-1,5-dimethyl-3-oxo-2,3-dihydro-1H-pyrazol-4-yl)-4-methylisoxazole-3-carboxamide] — 80-fold lower, 8 nM
- Cc1c(C(=O)Nc2c(C)n(C)n(C3CCC3)c2=O)noc1[C@H]1CCC[C@@H](C(C)(C)C)O1 (single isomer, unassigned) [Example 15b, 5-((2R,6S)-6-(tert-butyl)tetrahydro-2H-pyran-2-yl)-N-(2-cyclobutyl-1,5-dimethyl-3-oxo-2,3-dihydro-1H-pyrazol-4-yl)-4-methylisoxazole-3-carboxamide or 5-((2S,6R)-6-(tert-Butyl)tetrahydro-2H-pyran-2-yl)-N-(2-cyclobutyl-1,5-dimethyl-3-oxo-2,3-dihydro-1H-pyrazol-4-yl)-4-methylisoxazole-3-carboxamide] — within 1.5-fold, 630 nM
- Cc1c(C(=O)Nc2c(C)n(C)n(C3CCCCC3)c2=O)noc1C1CC=CC(C(C)C)O1 (mixture of isomers) [Example 18] — 7-fold lower, 91 nM
- CO[C@@H]1C[C@@H](C(C)(C)C)O[C@@H](c2onc(C(=O)Nc3c(C)n(C)n(C4CCC4)c3=O)c2C)C1.CO[C@@H]1C[C@@H](c2onc(C(=O)Nc3c(C)n(C)n(C4CCC4)c3=O)c2C)O[C@@H](C(C)(C)C)C1 (mixture of isomers) [Example 14, 5-((2R,4R,6S)-6-(tert-butyl)-4-methoxytetrahydro-2H-pyran-2-yl)-N-(2-cyclobutyl-1,5-dimethyl-3-oxo-2,3-dihydro-1H-pyrazol-4-yl)-4-methylisoxazole-3-carboxamide and 5-((2S,4S,6R)-6-(tert-butyl)-4-methoxytetrahydro-2H-pyran-2-yl)-N-(2-cyclobutyl-1,5-dimethyl-3-oxo-2,3-dihydro-1H-pyrazol-4-yl)-4-methylisoxazole-3-carboxamide] — 3.9-fold higher, 2500 nM
- CCC1CC(C)CC=C1c1onc(C(=O)Nc2c(C)n(C)n(C3CCCCC3)c2=O)c1C (centres unmarked) [Example 1.1, N-(2-Cyclohexyl-1,5-dimethyl-3-oxo-2,3-dihydro-1H-pyrazol-4-yl)-5-(6-ethyl-4-methylcyclohex-1-en-1-yl)-4-methylisoxazole-3-carboxamide] — 300-fold lower, 2.1 nM
- Cc1c(C(=O)Nc2c(C)n(C)n(C3CCCCC3)c2=O)noc1C1=CCC(C(C)(C)C)CC1 (centres unmarked) [Example 1.4, 5-(4-(tert-Butyl)cyclohex-1-en-1-yl)-N-(2-cyclohexyl-1,5-dimethyl-3-oxo-2,3-dihydro-1H-pyrazol-4-yl)-4-methylisoxazole-3-carboxamide] — 200-fold lower, 3.2 nM
